The values that follow come from patent US5672710A, “Sulfides, sulfoxides and sulfones disubstituted with a tetrahydronaphthalenyl, chromanyl, thiochromanyl or tetrahydroquinolinyl and substituted phenyl or heteroaryl group, having retinoid-like biological activity” (priority 1995, dated 1997).

Molecules are shown by their SMILES.

One test addresses T1, RARβ (Homo sapiens, UniProt P10826).
T1 construct: expressed in transfected cells; host or cells: CV1
T1 sequence (P10826 1-448 isoform P10826-2): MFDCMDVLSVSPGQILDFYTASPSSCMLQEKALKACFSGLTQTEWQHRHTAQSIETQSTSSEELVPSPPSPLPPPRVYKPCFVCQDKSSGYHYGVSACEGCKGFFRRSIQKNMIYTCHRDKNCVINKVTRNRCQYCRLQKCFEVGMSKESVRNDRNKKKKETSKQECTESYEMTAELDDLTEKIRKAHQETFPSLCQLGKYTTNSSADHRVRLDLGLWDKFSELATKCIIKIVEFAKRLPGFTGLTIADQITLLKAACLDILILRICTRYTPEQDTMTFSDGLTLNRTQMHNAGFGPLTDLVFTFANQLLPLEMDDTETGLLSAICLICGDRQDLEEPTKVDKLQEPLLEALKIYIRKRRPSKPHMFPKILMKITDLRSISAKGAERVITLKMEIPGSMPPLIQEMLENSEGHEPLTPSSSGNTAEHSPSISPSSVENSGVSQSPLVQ
Put plainly: Ligand binding assay, RARβ.
Settings: not given
An excerpt:
(§1) A holoreceptor transactivation assay and a ligand binding assay which measure the ability of the compounds of the invention to bind to the several retinoid receptor subtypes, respectively, are described in published PCT Application No. WO W093/11755 (particularly on pages 30-33 and 37-41) published on Jun. 24, 1993, the specification of which is also incorporated herein by reference. A description of the holoreceptor transactivation assay is also provided below.
(§2) CV1 cells (5,000 cells/well) were transfected with an RAR reporter plasmid MTV-TREp-LUC (50 ng) along with one of the […] expression vectors (10 ng) in an automated 96-well format by the calcium phosphate procedure of Heyman et al. Cell 68, 397-406. (8). For RXRα and RXR.GAMMA. transactivation assays, an RXR-responsive reporter plasmid CRBPII-tk-LUC (50 ng) along with the appropriate RXRexpression vectors (10 ng) was used substantially as described by Heyman et al. above, and Allegretto et al. J. Biol. Chem. 268, 26625-26633. For RXRβ transactivation assays, an RXR-responsive reporter plasmid CPRE-tk-LUC ([…]) along with RXRβ expression vector ([…]) was used as described in above. These reporters contain DRI elements from human CRBPII and certain DRI elements from promoter, respectively. (see Mangelsdorf et al. The Retinoids: Biology, Chemistry and Medicine, pp 319-349, Raven Press Ltd., New York and Heyman et al., cited above) (1, 8). A β-galactosidase (50 ng) expression vector was used as an internal control in the transfections to normalize for variations in transfection efficiency. The cells were transfected in triplicate for 6 hours, followed by incubation with retinoids for 36 hours, and the extracts were assayed for luciferase and β-galactosidase activities. The detailed experimental procedure for holoreceptor transactivations has been described in Heyman et al. above, and Allegretto et al. cited above. The results obtained in this assay in connection with examplary compounds in accordance with the present invention are expressed in EC50 numbers, as they are also in the chimeric receptor transactivation assay. The Heyman et al. Cell 68, 397-406, Allegretto et al. J. Biol. Chem. 268, 26625-26633, and Mangelsdorf et al. The Retinoids: Biology, Chemistry and Medicine, pp 319-349, Raven Press Ltd., New York, are expressly incorporated herein by reference. The results of ligand binding assay are expressed in Kd numbers. (See Cheng et al. Biochemical Pharmacology Vol. 22 pp 3099-3108, expressly incorporated herein by reference.)
By Kd is commonly meant a measure of binding affinity in units of concentration. Higher therefore signals weaker binding. `CC1(C)CCC(C)(C)c2cc(S(=O)(=O)c3ccc(C(=O)O)cc3)ccc21` [Compound 5, 4-(5,6,7,8-tetrahydro-5,5,8,8-tetramethyl-2-naphthylsulfonyl)benzoic acid]: the Kd is above 1 µM.

The compound `Cc1cc2c(cc1S(=O)(=O)c1ccc(C(=O)O)cc1)C(C)(C)CCC2(C)C` [Compound 11, 4-(5,6,7,8-tetrahydro-3,5,5,8,8-pentamethyl-2-naphthylsulfonyl)benzoic acid] showed a Kd above 1 µM.

As for `Cc1cc2c(cc1[S+]([O-])c1ccc(C(=O)O)cc1)C(C)(C)CCC2(C)C` (centres unmarked) [Compound 9, 4-(5,6,7,8-tetrahydro-3,5,5,8,8-pentamethyl-2-naphthylsulfoxy)benzoic acid], the dissociation constant (Kd) is above 1 µM.

Take `CC1(C)CCC(C)(C)c2cc(Sc3ccc(C(=O)O)cc3)ccc21` [Compound 2]: the Kd was above 1 µM.

`Cc1cc2c(cc1Sc1ncc(C(=O)O)s1)C(C)(C)CCC2(C)C` [Compound 15, 2-(5,6,7,8-Tetrahydro-3,5,5,8,8-pentamethyl-2-naphthylthio)-5-thiazolecarboxylic acid] came in with a dissociation constant (Kd) above 1 µM.

Compound `Cc1cc2c(cc1Sc1ccc(C(=O)O)cc1)C(C)(C)CCC2(C)C` [Compound 7, 4-(5,6,7,8-tetrahydro-3,5,5,8,8-pentamethyl-2-Daphthylthio)benzoic acid] yielded a Kd above 1 µM.

For the compound `Cc1cc2c(cc1Sc1ccc(C(=O)O)cn1)C(C)(C)CCC2(C)C` [Compound 13], the Kd is above 10 µM.

The target in a further test is T2, RARγ (Homo sapiens, UniProt P13631).
T2 construct: expressed in transfected cells; host or cells: CV1
T2 sequence (P13631 1-454): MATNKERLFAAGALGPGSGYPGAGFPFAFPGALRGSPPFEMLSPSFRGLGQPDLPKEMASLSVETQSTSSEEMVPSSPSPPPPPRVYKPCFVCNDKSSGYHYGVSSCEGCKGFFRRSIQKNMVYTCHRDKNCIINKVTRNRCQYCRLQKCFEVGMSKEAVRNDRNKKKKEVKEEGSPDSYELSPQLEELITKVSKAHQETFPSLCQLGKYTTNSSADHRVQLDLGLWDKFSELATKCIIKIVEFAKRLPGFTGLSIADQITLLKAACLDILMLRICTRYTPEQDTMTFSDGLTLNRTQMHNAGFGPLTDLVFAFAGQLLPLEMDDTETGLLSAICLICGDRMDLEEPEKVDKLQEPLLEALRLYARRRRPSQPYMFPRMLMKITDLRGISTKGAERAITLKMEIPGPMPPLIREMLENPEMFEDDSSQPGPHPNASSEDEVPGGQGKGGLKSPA
As to the kind of experiment: Ligand binding assay, RARγ.
Settings: not given
From the text: as §1, §2
The compound `CC1(C)CCC(C)(C)c2cc(S(=O)(=O)c3ccc(C(=O)O)cc3)ccc21` [Compound 5, 4-(5,6,7,8-tetrahydro-5,5,8,8-tetramethyl-2-naphthylsulfonyl)benzoic acid] gave a dissociation constant Kd above 1 µM.

Compound `Cc1cc2c(cc1S(=O)(=O)c1ccc(C(=O)O)cc1)C(C)(C)CCC2(C)C` [Compound 11, 4-(5,6,7,8-tetrahydro-3,5,5,8,8-pentamethyl-2-naphthylsulfonyl)benzoic acid] returned a Kd above 1 µM.

The compound `Cc1cc2c(cc1[S+]([O-])c1ccc(C(=O)O)cc1)C(C)(C)CCC2(C)C` (centres unmarked) [Compound 9, 4-(5,6,7,8-tetrahydro-3,5,5,8,8-pentamethyl-2-naphthylsulfoxy)benzoic acid] showed a dissociation constant (Kd) above 1 µM.

`CC1(C)CCC(C)(C)c2cc(Sc3ccc(C(=O)O)cc3)ccc21` [Compound 2] showed a Kd above 1 µM.

Take `Cc1cc2c(cc1Sc1ncc(C(=O)O)s1)C(C)(C)CCC2(C)C` [Compound 15, 2-(5,6,7,8-Tetrahydro-3,5,5,8,8-pentamethyl-2-naphthylthio)-5-thiazolecarboxylic acid]: the Kd was above 1 µM.

Turning to `Cc1cc2c(cc1Sc1ccc(C(=O)O)cc1)C(C)(C)CCC2(C)C` [Compound 7, 4-(5,6,7,8-tetrahydro-3,5,5,8,8-pentamethyl-2-Daphthylthio)benzoic acid], the dissociation constant (Kd) is above 1 µM.

For `Cc1cc2c(cc1Sc1ccc(C(=O)O)cn1)C(C)(C)CCC2(C)C` [Compound 13], the Kd is above 10 µM.

Another test concerns the target T3, RXRα (Homo sapiens, UniProt P19793).
T3 construct: expressed in transfected cells; host or cells: CV1
T3 sequence (P19793 1-462): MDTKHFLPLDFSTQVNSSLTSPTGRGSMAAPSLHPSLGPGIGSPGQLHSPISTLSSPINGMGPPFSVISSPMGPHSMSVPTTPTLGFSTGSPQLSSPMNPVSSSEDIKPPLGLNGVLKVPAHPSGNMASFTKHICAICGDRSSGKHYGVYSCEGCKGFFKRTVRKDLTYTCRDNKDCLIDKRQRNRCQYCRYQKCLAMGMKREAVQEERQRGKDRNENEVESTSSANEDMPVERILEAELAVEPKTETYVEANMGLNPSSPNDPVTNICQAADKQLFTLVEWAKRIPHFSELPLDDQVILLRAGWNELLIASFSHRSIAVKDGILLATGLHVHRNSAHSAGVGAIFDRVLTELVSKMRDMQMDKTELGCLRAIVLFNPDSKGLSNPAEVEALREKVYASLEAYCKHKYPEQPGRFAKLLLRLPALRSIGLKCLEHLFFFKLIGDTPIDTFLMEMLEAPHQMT
Put plainly: Holoreceptor transactivation assay, RXRα. It counts as cell-based. The following applies: CV1 cells, 36 hours.
From the text: as §1, §2
Usually EC50 stands for the concentration that produces a half-maximal response. The low end stands for a more potent agent, the high end for a less potent agent. `CC1(C)CCC(C)(C)c2cc(S(=O)(=O)c3ccc(C(=O)O)cc3)ccc21` [Compound 5, 4-(5,6,7,8-tetrahydro-5,5,8,8-tetramethyl-2-naphthylsulfonyl)benzoic acid] came in with an EC50 of 3 µM.

Compound `Cc1cc2c(cc1S(=O)(=O)c1ccc(C(=O)O)cc1)C(C)(C)CCC2(C)C` [Compound 11, 4-(5,6,7,8-tetrahydro-3,5,5,8,8-pentamethyl-2-naphthylsulfonyl)benzoic acid] came in with a concentration giving a half-maximal response (EC50) of 2.8 µM. This EC50 and that of the compound before are within 1.5-fold of each other.

In turn, `Cc1cc2c(cc1Sc1ncc(C(=O)O)s1)C(C)(C)CCC2(C)C` [Compound 15, 2-(5,6,7,8-Tetrahydro-3,5,5,8,8-pentamethyl-2-naphthylthio)-5-thiazolecarboxylic acid] came in with an EC50 of 2.3 µM.

Take `Cc1cc2c(cc1Sc1ccc(C(=O)O)cc1)C(C)(C)CCC2(C)C` [Compound 7, 4-(5,6,7,8-tetrahydro-3,5,5,8,8-pentamethyl-2-Daphthylthio)benzoic acid]: the concentration giving a half-maximal response (EC50) came out at 0.28 µM.

In turn, `Cc1cc2c(cc1Sc1ccc(C(=O)O)cn1)C(C)(C)CCC2(C)C` [Compound 13] showed an EC50 of 0.054 µM. This EC50 lies about 5.2-fold lower than the previous one.

Still in this test, the particulars now being: CV-1; CV1 cells; relative to all trans retinoic acid; read-out: Transactivation Assay Efficacy (% of RA activity), RXRα.
As for `CC1(C)CCC(C)(C)c2cc(S(=O)(=O)c3ccc(C(=O)O)cc3)ccc21` [Compound 5, 4-(5,6,7,8-tetrahydro-5,5,8,8-tetramethyl-2-naphthylsulfonyl)benzoic acid], the Emax came to 32%.

As to `Cc1cc2c(cc1S(=O)(=O)c1ccc(C(=O)O)cc1)C(C)(C)CCC2(C)C` [Compound 11, 4-(5,6,7,8-tetrahydro-3,5,5,8,8-pentamethyl-2-naphthylsulfonyl)benzoic acid], the Emax was determined as 55%.

In the case of `Cc1cc2c(cc1[S+]([O-])c1ccc(C(=O)O)cc1)C(C)(C)CCC2(C)C` (centres unmarked) [Compound 9, 4-(5,6,7,8-tetrahydro-3,5,5,8,8-pentamethyl-2-naphthylsulfoxy)benzoic acid], the Emax was found to be 17%.

Consider `CC1(C)CCC(C)(C)c2cc(Sc3ccc(C(=O)O)cc3)ccc21` [Compound 2], for which the Emax was found to be 51%.

Regarding `Cc1cc2c(cc1Sc1ncc(C(=O)O)s1)C(C)(C)CCC2(C)C` [Compound 15, 2-(5,6,7,8-Tetrahydro-3,5,5,8,8-pentamethyl-2-naphthylthio)-5-thiazolecarboxylic acid], the Emax came to 85%.

Regarding `Cc1cc2c(cc1Sc1ccc(C(=O)O)cc1)C(C)(C)CCC2(C)C` [Compound 7, 4-(5,6,7,8-tetrahydro-3,5,5,8,8-pentamethyl-2-Daphthylthio)benzoic acid], the Emax came out at 81%.

Regarding `Cc1cc2c(cc1Sc1ccc(C(=O)O)cn1)C(C)(C)CCC2(C)C` [Compound 13], the Emax stood at 91%.
